For this test, the target named is T1, fms-like receptor tyrosine kinase-3 (FLT3) (Homo sapiens, UniProt P36888).
T1 sequence (P36888 27-993): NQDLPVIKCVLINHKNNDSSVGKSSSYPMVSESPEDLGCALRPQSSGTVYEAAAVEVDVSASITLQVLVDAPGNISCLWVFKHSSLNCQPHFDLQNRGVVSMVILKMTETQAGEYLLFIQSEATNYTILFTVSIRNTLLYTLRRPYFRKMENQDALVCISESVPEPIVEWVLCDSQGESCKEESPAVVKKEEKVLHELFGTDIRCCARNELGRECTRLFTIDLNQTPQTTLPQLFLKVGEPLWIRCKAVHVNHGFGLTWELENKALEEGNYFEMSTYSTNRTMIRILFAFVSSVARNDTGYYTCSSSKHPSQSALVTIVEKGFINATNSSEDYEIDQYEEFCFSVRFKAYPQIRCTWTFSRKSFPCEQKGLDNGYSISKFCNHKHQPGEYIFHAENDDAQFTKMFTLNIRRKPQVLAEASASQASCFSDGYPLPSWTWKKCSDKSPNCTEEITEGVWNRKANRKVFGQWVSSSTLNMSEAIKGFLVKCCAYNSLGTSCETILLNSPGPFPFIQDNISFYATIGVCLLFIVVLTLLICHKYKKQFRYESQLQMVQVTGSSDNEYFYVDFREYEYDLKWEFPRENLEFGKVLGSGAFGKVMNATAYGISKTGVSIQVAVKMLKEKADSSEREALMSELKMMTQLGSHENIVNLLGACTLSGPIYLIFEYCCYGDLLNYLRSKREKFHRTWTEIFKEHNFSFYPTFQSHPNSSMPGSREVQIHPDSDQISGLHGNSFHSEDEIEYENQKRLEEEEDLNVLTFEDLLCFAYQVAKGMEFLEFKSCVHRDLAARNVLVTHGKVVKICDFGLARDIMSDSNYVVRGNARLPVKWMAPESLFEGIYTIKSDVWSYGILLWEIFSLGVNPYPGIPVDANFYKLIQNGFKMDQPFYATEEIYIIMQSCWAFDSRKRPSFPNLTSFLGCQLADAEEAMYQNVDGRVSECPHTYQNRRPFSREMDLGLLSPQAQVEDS
It is filed as biochemical.

Consider `CCCCNc1ncnc2c(N3CCNCC3)c[nH]c12` [compound 9, N-butyl-7-(piperazin-1-yl)-5H-pyrrolo[3,2-d]pyrimidin-4-amine], for which the IC50 – broadly, the concentration that gives 50% inhibition – was found to be 1920 nM.

Source of the values: article PMC3724770 (ACS combinatorial science, 2012).
